This assay deals with HSV-1. The experiment in a line: HSV-1 infection of Vero 76 cells, HSV DNA hybridization capture assay. It counts as cell-based, herpes simplex virus 1. To be noted: Human alphaherpesvirus 1; HSV-1 (MOI=0.001) in Vero 76 cells, 40–48 hours at 37° C., viral DNA by hybridization/chemiluminescence. On the procedure: Vero 76 cells were maintained in MEM with Earle's salts, L-glutamine, 8% FBS (Hyclone, A-1111-L) and 100 units/mL Penicillin-100 μg/mL Streptomycin. For assay conditions, FBS was reduced to 2%. Cells are seeded into 96-well tissue culture plates at a density of 5×10^4 cells/well after being incubated for 45 min at 37° C. in the presence of HSV-1 or HSV-2 (MOI=0.001). Test compounds are added to the wells and the plates are incubated at 37° C. for 40–48 hours. Cell lysates are prepared as follows: media was removed and replaced with 150 μL/well 0.2 N NaOH with 1% Igepal CA 630 or NP-40. Plates were incubated up to 14 days at room temperature in a humidified chamber to prevent evaporation.
For the detection probe, a gel-purified, digoxigenin-labeled, […] PCR fragment of the HSV UL-15 sequence was utilized. PCR conditions included 0.5 μM primers, 180 μM dTP, 20 μM dUTP-digoxigenin (Boehringer Mannheim 1558706), 200 μM each of dATP, dCTP, and dGTP, 1×PCR Buffer II (Perkin Elmer), 2.5 mM MgCl2, 0.025 units/μL of AmpliTaq Gold polymerase (Perkin Elmer), and 5 ng of gel-purified HSV DNA per 100 μL Extension conditions were 10 min at 95° C., followed by 30 cycles of 95° C. for 1 min, 55° C. for 30 sec, and 72° C. for 2 min. The amplification was completed with a 10-min incubation at 72° C. Primers were selected to amplify a 728 bp probe spanning a section of the HSV1 UL15 open reading frame (nucleotides 249–977). Single-stranded transcripts were purified with Promega M13 Wizard kits. The final product was mixed 1:1 with a mixture of 6 M GuSCN, 100 mM EDTA and 200 μg/mL herring sperm DNA and stored at 4° C.
The capture DNA plasmid (HSV UL13 region in pUC) was linearized by cutting with Xba I, denatured for 15 min at 95° C. and diluted immediately into Reacti-Bind DNA Coating Solution (Pierce, 17250, diluted 1:1 with TE buffer, pH 8) at 1 ng/μL 75 μL/well were added to Corning (#3922 or 9690) white 96-well plates and incubated at room temperature for at least 4 hrs before washing twice with 300 μL/well 0.2×SSC/0.05% Tween-20 (SSC/T buffer). The plates were then incubated overnight at room temperature with 150 μL/well 0.2 N NaOH, 1% IGEPAL and 10 μg/mL herring sperm DNA.
Twenty-seven (27) μL of cell lysate was combined with 45 μL of hybridization solution (final concentration: 3M GuSCN, 50 mM EDTA, 100 μg/ml salmon sperm DNA, 5× Denhardt's solution, 0.25×APE, and 5 ng of the digoxigenin-labeled detection probe). APE is 1.5 M NH4-acetate, 0.15 M ammonium phosphate monobasic, and 5 mM EDTA adjusted to pH 6.0. Mineral oil (50 μL) was added to prevent evaporation. The hybridization plates were incubated at 95° C. for 10 minutes to denature the DNA, then incubated at 42° C. overnight. The wells were washed 6× with 300 μL/well SSC/T buffer then incubated with 75 μL/well anti-digoxigenin-HRP-conjugated antibody (Boehringer Mannheim 1207733, 1:5000 in TE) for 30 min at room temperature. The wells were washed 6× with 300 μL/well with PBS/0.05% Tween-20 before 75 μL/well SuperSignal LBA substrate (Pierce) was added. The plates were incubated at room temperature for 30 minutes and chemiluminescence was measured in a Wallac Victor reader.
The following results were obtained for HSV-1.

Among the data in patent US7153863B2, “Therapeutic compounds based on pyrazolopyridline derivatives” (SmithKline Beecham Corporation, priority 2002, dated 2006) are IC50 values, retold here.

A value given as a limit tells only on which side of the number the result lay.

The term IC50 denotes the concentration that gives 50% inhibition. Lower therefore signals greater potency. Consider `CSc1nccc(-c2c(C3CC3)nn3ccccc23)n1` [Example 34, 2-Cyclopropyl-3-[2-(methylthio)pyrimidin-4-yl]pyrazolo[1,5-a]pyridine], for which the IC50 is greater than 40 µM.
Next, `c1ccn2nc(C3CC3)c(-c3ccnc(NC4CCCC4)n3)c2c1` [Example 35, N-Cyclopentyl-4-(2-cyclopropylpyrazolo[1,5-a]pyridin-3-yl)pyrimidin-2-amine]: 3.1 µM.
To `c1cc(NC2CCCC2)n2nc(C3CC3)c(-c3ccnc(NC4CCCC4)n3)c2c1` [Example 36, N-Cyclopentyl-3-[2-(cyclopentylamino)pyrimidin-4-yl]-2-cyclopropylpyrazolo[1,5-a]pyridin-7-amine] belongs 0.9 µM.
